Data taken from PMC3740522, “Synthesis of the calcilytic ligand NPS 2143” (Beilstein Journal of Organic Chemistry, 2013).

Target: T1, calcium-sensing receptor (CaSR) (Rattus norvegicus, UniProt P48442)
T1 sequence (P48442 20-1079): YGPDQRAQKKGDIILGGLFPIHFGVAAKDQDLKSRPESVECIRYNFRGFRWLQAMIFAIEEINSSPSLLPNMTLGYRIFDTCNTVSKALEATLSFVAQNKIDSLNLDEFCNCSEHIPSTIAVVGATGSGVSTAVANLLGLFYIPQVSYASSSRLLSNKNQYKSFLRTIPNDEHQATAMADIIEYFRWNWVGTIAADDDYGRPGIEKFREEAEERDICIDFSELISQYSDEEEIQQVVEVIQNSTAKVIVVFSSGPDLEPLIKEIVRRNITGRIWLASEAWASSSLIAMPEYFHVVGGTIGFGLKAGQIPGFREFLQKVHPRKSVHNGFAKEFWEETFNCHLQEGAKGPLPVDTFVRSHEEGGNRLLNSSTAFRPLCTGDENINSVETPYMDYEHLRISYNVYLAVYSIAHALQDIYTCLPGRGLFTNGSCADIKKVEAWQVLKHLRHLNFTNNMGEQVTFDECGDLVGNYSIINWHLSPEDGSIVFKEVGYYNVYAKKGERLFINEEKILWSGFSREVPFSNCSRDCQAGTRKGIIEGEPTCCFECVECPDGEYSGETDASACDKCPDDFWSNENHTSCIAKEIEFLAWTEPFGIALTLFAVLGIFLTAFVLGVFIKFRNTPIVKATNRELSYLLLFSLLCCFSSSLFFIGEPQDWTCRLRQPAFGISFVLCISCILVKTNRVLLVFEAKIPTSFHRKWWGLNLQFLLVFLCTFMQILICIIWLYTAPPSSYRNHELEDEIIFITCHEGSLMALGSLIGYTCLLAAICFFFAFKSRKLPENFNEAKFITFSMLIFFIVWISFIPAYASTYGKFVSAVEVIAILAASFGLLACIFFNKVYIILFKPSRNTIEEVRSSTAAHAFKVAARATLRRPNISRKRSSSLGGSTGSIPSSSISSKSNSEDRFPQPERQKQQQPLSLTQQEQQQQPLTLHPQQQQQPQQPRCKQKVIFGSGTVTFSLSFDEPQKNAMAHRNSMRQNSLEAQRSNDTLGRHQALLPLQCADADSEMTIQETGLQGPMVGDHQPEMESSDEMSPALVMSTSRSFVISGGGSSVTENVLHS
Assay: inhibition of calcium-stimulated IP1 accumulation in HEK293 cells stably transfected with rat CaSR
Assay type: cell-based

With CC(C)(Cc1ccc2ccccc2c1)NC[C@@H](O)COc1cccc(Cl)c1C#N [(R)-3, NPS 2143] the IC50 was 0.64 µM.
